Reference: article PMC9321231

How the values were obtained:
[1] = system: human biphenotypic B myelomonocytic leukemia (MV4-11) cells; assay: Antiproliferative assay (MTT or SRB), MV4-11; type: cell-based; settings: for IC50: Homo sapiens, MV4-11, MV-4-11, read-out: IC50 ± SD, antiproliferative activity; for Calculated Selectivity Index SI: IC50 Balb/3T3 / IC50 MV-4-11
Experimental: (§1) Cell preparation, an in vitro antiproliferative assay, and MTT and SRB cytotoxic tests were performed according to the literature.

[2] = system: human breast adenocarcinoma (MDA-MB-231) cells; assay: Antiproliferative assay (MTT or SRB), MDA-MB-231; type: cell-based; settings: for IC50: Homo sapiens, MDA-MB-231, read-out: IC50 ± SD, antiproliferative activity; for Calculated Selectivity Index SI: IC50 Balb/3T3 / IC50 MDA-MB-231
Experimental: as §1

[3] = system: normal mouse fibroblast (BALB/3T3) cells; assay: Antiproliferative assay (MTT or SRB), normal fibroblasts BALB/3T3; type: cell-based; settings: Balb/3T3 normal mouse fibroblasts; read-out: IC50 ± SD, antiproliferative activity
Experimental: Anticancer drugs are toxic to cancer cells, but also show some toxicity to healthy cells. […] The selectivity indexes for thiazoles 3a–3j against MV4-11 and A-549 cells were in general much higher than for MDA-MB-231 and UMUC-3 cells.
as §1

A549 cells [4] = assay: Apoptosis/necrosis assay, Annexin V-FITC/PI flow cytometry; type: cell-based, human; settings: for percentage of A549 cells undergoing apoptosis: 48 h, control 6.05 ± 0.17%; for induction of necrosis: A549, 48 h
Experimental: (§2) The rate of cell apoptosis and necrosis was detected using Annexin V-FITC/PI double staining. […] Compound 3e turned out to be a stronger inducer of apoptosis than 3c. […] In turn, compound 3c induced apoptosis only at the concentrations of 10 and 20 µM, and the percentage of cells undergoing apoptosis increased from 6.05 ± 0.17% in the control to 10.14 ± 0.76% and 14.67 ± 0.68%, respectively (Figure 4B). Moreover, compound 3e at a concentration of 5 µM induced apoptosis to a similar level as cisplatin (CDDP) used at a concentration of 4 µM. To identify the mechanism of the 3c- and 3e-induced apoptosis in the A549 cells, the activation of effector caspase-3 was evaluated by flow cytometry. […] To further explore the antiproliferative activity of compounds 3c and 3e, the influence of both compounds on the distribution of cell cycle phases in the A549 cells was analyzed. […] The G2 checkpoint prevents cells from entering mitosis when DNA is damaged, providing an opportunity for repair and stopping the proliferation of damaged cells. […] Apoptosis is a crucial process involved in the regulation of tumor formation and in the treatment response; therefore, cancer therapy has been linked to activation of the apoptosis signal transduction pathway. Caspase-3, an executioner caspase, plays an important role in apoptosis and becomes a primary target for cancer treatment.
(§3) The fluorescence-activated cell sorting (FACS) technique was employed to analyze the 3c- and 3e-induced cell death, the activation of executive caspase-3, and the cell cycle in the A549 cells. The quantitative analysis of apoptosis and necrosis was performed using an Annexin V-fluorescein isothiocyanate (FITC)/ propidium iodide (PI) apoptosis kit (BD Biosciences, BD Pharmingen™, San Jose, CA, USA) as previously described. To determine the active form of caspase-3, the A549 cells were plated into 6-well plates at a density of 6 × 10^5 cells/well. The next day, the growth medium was replaced with a fresh one supplemented with compound 3c or 3e (10, 20, and 40 µM) or the DMSO vehicle (0.1%; control cells). After 48-h incubation, the samples were harvested and the level of active caspase-3 was determined using the phycoerythrin (PE) Active Caspase-3 Apoptosis Kit (BD Pharmingen™) according to the manufacturer’s instructions. The stained cells were analyzed using FACS Calibur, and data were analyzed using Cell Quest Pro Version 6.0 (BD Biosciences, San Jose, CA, USA) for the Macintosh operating system. The results were calculated as a percent of cells with active caspase-3 among all the analyzed cells. The cell cycle analysis was performed by determination of the DNA contents on the basis of PI staining as previously described.
Figure 4 Effect of compounds 3c and 3e and cisplatin (CDDP) on apoptosis induction in the A549 cell line. After the 48-h exposure to the indicated concentrations of the compounds, the cells were stained with annexin (An) V-FITC)/propidium iodide (PI) and examined with flow cytometry. (A) The representative graphs obtained by flow cytometric analysis: dot plots indicate the percentage of An−/PI+ necrotic cells (Q1), An+ /PI+ late apoptotic cells (Q2), An−/PI− viable cells (Q3), and An+ /PI− early apoptotic cells (Q4). (B) Statistical analysis of the apoptotic (early + late apoptosis) and necrotic rate populations after the 3c, 3e, and cisplatin (CDDP) treatment. Data are presented as mean ± SD from three independent experiments; *** p < 0.001 in comparison to the control; one-way ANOVA followed by Dunnett’s post hoc test.

caspase-3 in A549 cells = assay: Active caspase-3 flow cytometry; type: cell-based, human; settings: A549, 48 h; 10, 20 and 40 µM per method
Experimental: The rate of cell apoptosis and necrosis was detected using Annexin V-FITC/PI double staining. […] Compound 3e turned out to be a stronger inducer of apoptosis than 3c. […] In turn, compound 3c induced apoptosis only at the concentrations of 10 and 20 µM, and the percentage of cells undergoing apoptosis increased from 6.05 ± 0.17% in the control to 10.14 ± 0.76% and 14.67 ± 0.68%, respectively (Figure 4B). Moreover, compound 3e at a concentration of 5 µM induced apoptosis to a similar level as cisplatin (CDDP) used at a concentration of 4 µM. To identify the mechanism of the 3c- and 3e-induced apoptosis in the A549 cells, the activation of effector caspase-3 was evaluated by flow cytometry. […] To further explore the antiproliferative activity of compounds 3c and 3e, the influence of both compounds on the distribution of cell cycle phases in the A549 cells was analyzed. […]
The fluorescence-activated cell sorting (FACS) technique was employed to analyze the 3c- and 3e-induced cell death, the activation of executive caspase-3, and the cell cycle in the A549 cells. The quantitative analysis of apoptosis and necrosis was performed using an Annexin V-fluorescein isothiocyanate (FITC)/ propidium iodide (PI) apoptosis kit (BD Biosciences, BD Pharmingen™, San Jose, CA, USA) as previously described. […] The results were calculated as a percent of cells with active caspase-3 among all the analyzed cells. […]

A549 cells [5] = assay: Cell cycle analysis, PI staining flow cytometry; type: cell-based, human; settings: 48 h, control 6.20 ± 0.23%
Experimental: as §2, §3
Figure 6 Effect of compounds 3c and 3e on cell cycle distribution in A549 cells. After the treatment with the indicated concentrations of compounds 3c and 3e for 48 h, the cells were stained with propidium iodide and analyzed by flow cytometry. (A) Representative DNA histograms of A549 cells treated with compounds 3c and 3e. (B,C) Statistical analysis of the percentages of A549 cells in the sub-G1, G0/G1, S, and G2/M phases after treatment with compounds 3c and 3e, respectively. Data are expressed as means ± SD from three independent experiments. ** p < 0.01 and *** p < 0.001 in comparison to the control; one-way ANOVA followed by Tukey’s post hoc test.

[6] = target: T1, human neutrophil elastase (HNE) (Homo sapiens, UniProt P08246); assay: Human neutrophil elastase inhibition assay (spectrofluorimetric, MeOSuc-AAPV-AMC substrate)
T1 sequence (P08246 30-267): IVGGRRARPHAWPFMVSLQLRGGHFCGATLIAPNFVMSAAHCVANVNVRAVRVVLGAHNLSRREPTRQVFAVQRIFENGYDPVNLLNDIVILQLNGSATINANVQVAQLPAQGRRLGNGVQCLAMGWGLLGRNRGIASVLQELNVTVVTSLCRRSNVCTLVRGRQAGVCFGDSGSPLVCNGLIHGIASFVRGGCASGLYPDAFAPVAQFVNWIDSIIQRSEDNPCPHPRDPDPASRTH
Experimental: The inhibition of human neutrophil elastase was carried out by the spectrofluorimetric method using N-methoxysuccinyl-Ala-Ala-Pro-Val-7-amido-4-methylcoumarin (MeOSuc-AAPV-AMC) as substrate.

Structure (SMILES)	IC50 [1] [µM]	Calculated Selectivity Index SI [1]	IC50 [2] [µM]	Calculated Selectivity Index SI [2]	IC50 [3] [µM]	percentage of A549 cells undergoing apoptosis (A549 cells [4]; 10 µM) [%]	percentage of A549 cells undergoing apoptosis (A549 cells [4]; 20 µM) [%]	induction of necrosis (A549 cells [4])	number of cells with active caspase 3 (caspase-3 in A549 cells)	G2/M fraction of A549 cells (A549 cells [5]; 5 µM) [%]	G2/M fraction of A549 cells (A549 cells [5]; 10 µM) [%]	G2/M fraction of A549 cells (A549 cells [5]; 20 µM) [%]	IC50 [6] [µM]	percentage of A549 cells undergoing apoptosis (A549 cells [4]; 5 µM) [%]
CCC1(CC)C(=O)N(c2ccc(-c3csc(Nc4cc(OC)c(OC)c(OC)c4)n3)cc2)C1=O [3c, 3,3-Diethyl-1-(4-(2-(3,4,5-trimethoxyphenylamino)thiazol-4-yl)phenyl)azetidine-2,4-dione]	4.59 ± 2.03	1.62	6.38 ± 0.71	1.16	7.42 ± 1.04	10.14 ± 0.76	14.67 ± 0.68	no induction of necrosis was observed	concentration-dependent increase in the number of cells with active caspase 3	9.69 ± 0.77	15.68 ± 5.31	29.04 ± 1.09	0.0382 ± 0.00491	–
CCC1(CC)C(=O)N(c2ccc(-c3csc(Nc4ccc(S(N)(=O)=O)cc4)n3)cc2)C1=O [3e, 4-(4-(4-(3,3-Diethyl-2,4-dioxoazetidin-1-yl)phenyl)thiazol-2-ylamino)benzenesulfo-namide]	6.23 ± 0.42	1.05	6.42 ± 1.7	1.02	6.57 ± 0.21	14.45 ± 1.02	23.39 ± 0.31	no induction of necrosis was observed	concentration-dependent increase in the number of cells with active caspase 3	9.08 ± 0.69	10.83 ± 1.06	35.78 ± 0.46	0.035 ± 0.00388	8.79 ± 0.50
